# Experimental data from US20180255777A1, “Metal Ion Complex-Modified Layered Silicates” (priority 2017, published 2018).
# System: E. coli
# Assay: Disk diffusion method, zone of inhibition
# Format: cell-based, Escherichia coli
# Procedure: Working solutions were prepared by dissolving of N-alkylimidazoles (100 mg) in ethanol (50 μL). Blank disks were impregnated with 10 μL of solution and the disks placed on nutrient agar containing a confluent E. coli culture. The plates were incubated at 37° C. for 18-24 h and antimicrobial activity determined by measuring the zone of inhibition. The experiments were performed in triplicate.
# The antibacterial activity of N-alkylimidazoles was investigated by the disk diffusion and broth methods against E. coli as a model microorganism.
substance,measurement,setting,value
silver(I)-N-octylimidazole complex [Ag(octlm)2],antibacterial activity (in words),"disk diffusion against E. coli, comparison across alkyl chain lengths",superior activity
same,Zone of inhibition diameter,"disk diffusion, nutrient agar with confluent E. coli culture, 37° C., 18-24 h, triplicate",21 ± 1.4 mm
